The values that follow come from PubChem BioAssay AID2060612 (Molecular Pharmacology Branch, DTP, NCI, 2025).

This test concerns 565232-114-T-J1-PDC complex spheroid viability. The test can be described thus: Anticancer human tumor 565232-114-T-J1-PDC patient-derived bladder carcinoma cell line growth inhibition [CLK]. Particulars: for viability, T/C: stronger effect = lower value. The text has this:
A high-throughput screen of multi-cell type tumor spheroids was designed to identify active combinations of […] and targeted small molecules. Complex spheroids include a stromal component modeled by human endothelial cells (HUVEC) and fibroblasts modeled by human mesenchymal stem cells (MSCs). The concentration ranges selected for each drug and investigational agent were based upon clinically achievable concentrations if the clinical Cmax of the agent was known.
Compounds. The drugs and investigational agents: cirtuvivint (SM08502; NSC835563), CC-671 (NSC850746), vemurafenib (NSC761431), tapotoclax (NSC804041), sotorasib (NSC818433), adagrasib (NSC831453), MRTX-1133 (NSC836407), BAY2416964 (NSC825713), copanlisib (NSC816437), inavolisib (NSC800729), abemaciclib (NSC768073), osimertinib (NSC779217), entinostat (NSC756642), eltanexor (KPT-8602, NSC794443), venetoclax (NSC766270), ceralasertib (NSC777638), bortezomib (NSC756655), olaparib (NSC753686), talazoparib (NSC767125), alisertib (NSC759677), peposertib (NSC802822), gemcitabine (NSC613327), 5-fluorouracil (NSC19893), SN-38 (NSC673596), oxaliplatin (NSC266046), paclitaxel (NSC125973), and doxorubicin (NSC123127), were obtained from the National Cancer Institute (NCI) Developmental Therapeutics Program Chemical Repository. The FDA-approved anticancer drug set is available from the Developmental Therapeutics Program at https://dtp.cancer.gov/organization/dscb/obtaining/available plates.htm. […] The stock solutions were prepared in dimethyl sulfoxide (DMSO, Sigma-Aldrich, St. Louis, MO, cat. D2650), except for the platinum complexes which were prepared in saline (Quality Biological, Gaithersburg, MD, cat. 114-055-101), at 800-fold the tested concentration and stored at -70 degrees C prior to their use. All drugs and investigational agents were tested over a range starting from a high concentration at or near the clinical Cmax and decreasing in half-log increments. If the clinical Cmax for an agent had not been determined, the highest concentration tested was 10 microM.
Cell Culture. All cells were maintained in an incubator at 37 degrees C and 5% CO2 with 95% humidity. The PDC lines were cultured according to standard operating procedures established by the NCI PDMR. Briefly, all PDCs were thawed and cultured in Matrigel-coated flasks prepared with a working solution of 1X Ham's F-12 nutrient mix, without supplementation (Invitrogen, Waltham, MA, cat. 11765054), 100 U/mL penicillin-streptomycin (Invitrogen, cat. 15140122), and 2.5% Matrigel (Corning Inc., Corning, NY, cat. 354248) for the first three passages. The 947758-054-R-J2-PDC line was cultured in 6B/Colon 1A media, which includes advanced DMEM/F-12 (Thermo Fisher Scientific, cat. 12634028), 10 mM HEPES (Thermo Fisher Scientific, cat. 15630080), 1X GlutaMAX supplement (Thermo Fisher Scientific, cat. 35050061), 0.1 mg/mL primocin (InvivoGen, cat. ant-pm-2), 10% defined fetal bovine serum, heat inactivated (HyClone Laboratories Inc., cat. SH30070.03HI), 1.25 mM N-Acetyl-L-cysteine (Sigma-Aldrich, cat. A9165), 10 mM nicotinamide (Sigma-Aldrich, cat. N0636), 1X B-27 supplement (Thermo Fisher Scientific, cat. 17504044), 1X N-2 supplement (Thermo Fisher Scientific, cat. 17502048), and 10 microM Y-27632 dihydrochloride (Tocris Bioscience, cat. 1254). The 876862-298-R-J1-PDC was cultured in 6E media, which includes all 6B/Colon 1A media components plus 50% L-WRN conditioned media (ATCC, cat. CRL-3276), 50 ng/mL recombinant human EGF recombinant protein (hEGF; Thermo Fisher Scientific, cat. PHG0311), 10 ng/mL recombinant human fibroblast growth factor 10 (hGFG-10; PeproTech, cat. 100-26), 1 ng/mL recombinant human fibroblast growth factor 2 (hFGF-2; PeproTech, cat. 100-18B), and 1 µM prostaglandin E2 (PGE2; Tocris, cat. 2296). The 227483-062-R1-J1-PDC line was cultured in Panc media, containing all 6E components except hFGF-2, with the addition of 500 nM SB-431542 (Selleckchem, cat. S1067) and 10 nM gastrin (Tocris, cat. 3006). […]

Several values for one entry are separate records, joined by “and”; a condition that tells them apart may be missing. Identical values can stand only once. Where only a bound is given, the exact number is not on record here.
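Further: spheroids exposed to compounds for 7 days before readout.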
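Wherever viability, T/C is given: 100% = DMSO vehicle wells with luminescence normalized to vehicle control.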

Consider `CC(C)CC(NC(=O)C(Cc1ccccc1)NC(=O)c1cnccn1)B(O)O` (stereo not given) + CNC(=O)c1ccc(Nc2nc(OC3CCCC3)c3c(-c4ccc5nc(C)oc5c4)c[nH]c3n2)c(OC)c1, for which the IC50 (usually the concentration needed to halve the response being measured) by setting is: (curve of first compound, second compound 0.0316 µM) 4.66 nM; (curve of first compound, second compound 0.1 µM) 1.01 nM; (curve of first compound, second compound 0.316 µM) less than 0.949 nM; (curve of first compound, second compound 1 µM) less than 0.949 nM; (curve of first compound, second compound 3.16 µM) less than 0.949 nM; (curve of first compound, second compound 10 µM) less than 0.949 nM. Moreover, the viability, T/C (commonly the result in the treated group divided by that in the control group, in per cent) is, setting by setting: (second compound 0.0316 µM, first compound 0.000949 µM) 81%; (second compound 0.0316 µM, first compound 0.003 µM) 80.1%; (second compound 0.0316 µM, first compound 0.00949 µM) 1.47%; (second compound 0.0316 µM, first compound 0.03 µM) 0.95%; (second compound 0.0316 µM, first compound 0.0949 µM) 0.67%; (second compound 0.0316 µM, first compound 0.3 µM) 1.42%. The viability, T/C is 50.7% (second compound 0.1 µM, first compound 0.000949 µM); 42.4% (second compound 0.1 µM, first compound 0.003 µM); 1.02% (second compound 0.1 µM, first compound 0.00949 µM); 0.74% (second compound 0.1 µM, first compound 0.03 µM); 0.79% (second compound 0.1 µM, first compound 0.0949 µM); 0.53% (second compound 0.1 µM, first compound 0.3 µM). Besides, the viability, T/C is 31.1% (second compound 0.316 µM, first compound 0.000949 µM); 24.6% (second compound 0.316 µM, first compound 0.003 µM); 0.97% (second compound 0.316 µM, first compound 0.00949 µM); 0.75% (second compound 0.316 µM, first compound 0.03 µM); 3.5% (second compound 0.316 µM, first compound 0.0949 µM); 0.65% (second compound 0.316 µM, first compound 0.3 µM). Further, the viability, T/C reads like this: (second compound 1 µM, first compound 0.000949 µM) 22.1%; (second compound 1 µM, first compound 0.003 µM) 23.1%; (second compound 1 µM, first compound 0.00949 µM) 0.93%; (second compound 1 µM, first compound 0.03 µM) 0.66%; (second compound 1 µM, first compound 0.0949 µM) 0.67%; (second compound 1 µM, first compound 0.3 µM) 1.42%. Besides, the viability, T/C reads like this: (second compound 3.16 µM, first compound 0.000949 µM) 19.6%; (second compound 3.16 µM, first compound 0.003 µM) 12.3%; (second compound 3.16 µM, first compound 0.00949 µM) 0.72%; (second compound 3.16 µM, first compound 0.03 µM) 1.66%; (second compound 3.16 µM, first compound 0.0949 µM) 0.65%; (second compound 3.16 µM, first compound 0.3 µM) 1.37%. Moreover, the viability, T/C was 19.5% (second compound 10 µM, first compound 0.000949 µM); 10.6% (second compound 10 µM, first compound 0.003 µM); 1.82% (second compound 10 µM, first compound 0.00949 µM); 0.61% (second compound 10 µM, first compound 0.03 µM); 0.51% (second compound 10 µM, first compound 0.0949 µM); 1.99% (second compound 10 µM, first compound 0.3 µM).

`NC(=O)C(=Cn1cnc(-c2cc(C(F)(F)F)cc(C(F)(F)F)c2)n1)c1cncnc1`: the viability, T/C is, setting by setting: (compound 0.00949 µM) 99% and 110%; (compound 0.03 µM) 99.6% and 106%; (compound 0.0949 µM) 111% and 105%; (compound 0.3 µM) 71.5% and 52.6%; (compound 0.949 µM) 6.85% and 2.59%; (compound 3 µM) 1.92% and 0.42%. Also, where the note is “curve of compound”, the half-inhibitory concentration (IC50) is 436 nM and 319 nM.

With `CC(Nc1ccc2c(c1)OCCn1cc(N3C(=O)OCC3C(F)F)nc1-2)C(N)=O` (stereo not given), the viability, T/C reads like this: (compound 0.0316 µM) 99.5%; (compound 0.1 µM) 83.6%; (compound 0.316 µM) 92.9%; (compound 1 µM) 98.5%; (compound 3.16 µM) 92.8%; (compound 10 µM) 102%. Besides, the IC50 (curve of compound) was more than 10000 nM.

As to `O=C(c1cc(Cc2n[nH]c(=O)c3ccccc23)ccc1F)N1CCN(C(=O)C2CC2)CC1`, the viability, T/C is 128% and 92% (compound 0.0316 µM); 96.3% and 94.3% (compound 0.1 µM); 113% and 94.3% (compound 0.316 µM); 90.7% and 83.8% (compound 1 µM); 95% and 117% (compound 3.16 µM); 122% and 58.1% (compound 10 µM). Besides, the concentration for half-maximal inhibition (IC50) (curve of compound) was more than 10000 nM.

`COC1C=CCC(C)C(C)S(=O)(=O)NC(=O)c2ccc3c(c2)N(CC2CCC21)CC1(CCCc2cc(Cl)ccc21)CO3` (stereo not given): the viability, T/C (compound 0.0316 µM) is 93.3%; the viability, T/C (compound 0.1 µM) is 92.9%; the viability, T/C (compound 0.316 µM) is 79.9%; the viability, T/C (compound 1 µM) was 21%; the viability, T/C (compound 3.16 µM) is 6.86%; the viability, T/C (compound 10 µM) was 3.28%. Besides, the 50% inhibitory concentration (IC50) (curve of compound) was 568 nM.
